Values quoted from earlier work as cited in patent US20110071136A1, “NOVEL TRICYCLIC PROTEIN KINASE MODULATORS” (CYLENE PHARMACEUTICALS, INC, priority 2009, published 2011).

Columns and labels:
[1] = test system: leukemic cells from AML patients; conditions: Fedorov et al., PNAS 104(51), 20523-28
MV-4-11 (AML) = MV-4-11 (AML) xenograft model; 2008 AACR Annual Meeting, Abstract No. 4974
MOLM-13 (AML) = MOLM-13 (AML) xenograft model; 2008 AACR Annual Meeting, Abstract No. 4974

Row | SMILES | cell growth and cell death [1] | tumor regression (MV-4-11 (AML)) | tumor regression (MOLM-13 (AML))
1 | CN(C)C[C@@H]1CCn2cc(c3ccccc32)C2=C(C(=O)NC2=O)c2cn(c3ccccc23)CCO1 [Ly5333'531] | suppressed cell growth and induced cell death |  | 
2 | CN1CCC(CNc2ccc3ncc(-c4cccc(OC(F)(F)F)c4)n3n2)CC1 [SGI-1776] |  | significant tumor regression | significant tumor regression
